Assay results as given in patent US20180273528A1 (LES LABORATOIRES SERVIER, priority 2015, published 2018).

Experiments:
[1] = biological target: T1, His-TEV-DYRK1A Kinase domain (aa127-485) (Homo sapiens, UniProt Q13627); assay: Kinase ADP assay (ADP Hunter), DYRK1A kinase domain; assay type: biochemical; conditions: 20 μM ATP
T1 construct: His-TEV-DYRK1A Kinase domain (aa127-485); His tag (N); TEV protease cleavage site (N)
Method in brief: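 Readout is ADP Hunter fluorescence at 590 nm, developed 20 min at 30 °C after the kinase step. That step ran 10 min at 30 °C in Hepes pH 7.4 (10 mM MgCl2, 1 mM EGTA, 0.02% Tween20) containing 20 μM ATP, 40 μM peptide and 20 nM enzyme plus compound.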

[2] = biological target: T2, CLK1 (Homo sapiens, UniProt P49759); assay: Kinase TR-FRET assay, CLK1; assay type: biochemical; conditions: full-length human kinase, 10 μM ATP
T2 construct: full-length human kinases from Carna Biosciences; purchased Carna Biosciences 04-126
Description: Inhibition of the enzymatic activity of human kinases was evaluated in a Time-Resolved Fluorescence Resonance Energy Transfer (TR-FRET) assay in 384-well reaction plates. […] Test compounds of the invention were added in reaction buffer at a range of concentrations from 0.1 nM to 30 μM. Following addition of EDTA (Sigma E7889, 10 mM) to stop the reaction, Europium-labelled mouse monoclonal antibody recognizing phospho-Thr232 in MBP (Perkin Elmer TRF0201, 1 nM) was added.

[3] = biological target: T3, DYRK1A (Homo sapiens, UniProt Q13627); assay: Cellular DYRK1 autophosphorylation assay in U2-OS cells; assay type: cell-based; parameters: full-length, wild-type human DYRK1A (NM_001396) with an HA tag; expressed in transfected cells; host or cells: human U2-OS osteosarcoma cells, transient transfection of a pcDNA3.1 plasmid; conditions: U2-OS cells transfected with HA-tagged human DYRK1A, 5 hours exposure; read-out: IC50 (μM) P-Ser520-Dyrk1A -Cell assay
Method in brief: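 IC50 derived from dose-response curves of phospho-Ser520-DYRK1A (blots normalised to total DYRK1A), quantified by either immunoblotting with chemiluminescence or Mesoscale electrochemiluminescent ELISA. Compounds applied to U2-OS cells across several concentrations for 5 hours.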

[4] = biological target: T4, DYRK1B (Homo sapiens, UniProt Q9Y463); assay: Kinase TR-FRET assay, DYRK1B; assay type: biochemical; conditions: full-length human kinase, 10 μM ATP
T4 construct: full-length human kinases from Carna Biosciences; purchased Carna Biosciences 04-131
Method in brief: (§1)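 Compounds tested at 0.1 nM to 30 μM in reaction buffer; reaction stopped with 10 mM EDTA. Phosphorylated MBP detected with 1 nM Europium-labelled anti-phospho-Thr232 antibody by TR-FRET.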

[5] = biological target: T5, CDK9 (Homo sapiens, UniProt P50750); assay: Kinase TR-FRET assay, CDK9; assay type: biochemical; conditions: full-length human kinase, 10 μM ATP
T5 construct: full-length human kinases from Carna Biosciences; purchased Carna Biosciences 04-110
Description: Inhibition of the enzymatic activity of human kinases was evaluated in a Time-Resolved Fluorescence Resonance Energy Transfer (TR-FRET) assay in 384-well reaction plates. In this assay, full-length human kinases from Carna Biosciences—DYRK1A (NM_001396, ref. 04-130; 2.0 ng/μl), DYRK1B (NM_004714, ref. 04-131; 1.2 ng/p), CLK1 (NM_001162407, ref. 04-126; 0.7 ng/μl), CDK9 (NM_001261, ref. 04-110; 0.9 ng/μl), or GSK3β (NM_001146156, ref. 04-141; 2.0 ng/μl—were incubated for 40 minutes (DYRK1A and DYRK1B) or 100 minutes (CLK1, CDK9 and GSK3β) at room temperature with ATP (Sigma A2383, 10 μM) and a ULight™-labelled human Myelin Basic Protein (MBP) peptide substrate (Perkin Elmer TRF0109, 100 nM) in a reaction buffer composed of 50 mM HEPES pH7.4, 1 mM EGTA, 10 mM MgCl2, 2 mM DTT and 0.01% Tween20. Test compounds of the invention were added in reaction buffer at a range of concentrations from 0.1 nM to 30 μM. Following addition of EDTA (Sigma E7889, 10 mM) to stop the reaction, Europium-labelled mouse monoclonal antibody recognizing phospho-Thr232 in MBP (Perkin Elmer TRF0201, 1 nM) was added. After one hour, the reaction plates were read using a fluorescence reader (EnVision®, Perkin Elmer) at 620 nm and 665 nm (excitation at 340 nm); when the Europium donor fluorophore is excited by light at 340 nm, an energy transfer (620 nm) to the acceptor occurs, which will then emit light at 665 nm.

[6] = biological target: T3, DYRK1A; assay: Kinase TR-FRET assay, DYRK1A; assay type: biochemical; parameters: full-length, wild-type human DYRK1A (NM_001396) with an HA tag; expressed in transfected cells; host or cells: human U2-OS osteosarcoma cells, transient transfection of a pcDNA3.1 plasmid; conditions: full-length human kinase, 10 μM ATP
Method in brief: as §1

T2 sequence (P49759 1-526 isoform P49759-3): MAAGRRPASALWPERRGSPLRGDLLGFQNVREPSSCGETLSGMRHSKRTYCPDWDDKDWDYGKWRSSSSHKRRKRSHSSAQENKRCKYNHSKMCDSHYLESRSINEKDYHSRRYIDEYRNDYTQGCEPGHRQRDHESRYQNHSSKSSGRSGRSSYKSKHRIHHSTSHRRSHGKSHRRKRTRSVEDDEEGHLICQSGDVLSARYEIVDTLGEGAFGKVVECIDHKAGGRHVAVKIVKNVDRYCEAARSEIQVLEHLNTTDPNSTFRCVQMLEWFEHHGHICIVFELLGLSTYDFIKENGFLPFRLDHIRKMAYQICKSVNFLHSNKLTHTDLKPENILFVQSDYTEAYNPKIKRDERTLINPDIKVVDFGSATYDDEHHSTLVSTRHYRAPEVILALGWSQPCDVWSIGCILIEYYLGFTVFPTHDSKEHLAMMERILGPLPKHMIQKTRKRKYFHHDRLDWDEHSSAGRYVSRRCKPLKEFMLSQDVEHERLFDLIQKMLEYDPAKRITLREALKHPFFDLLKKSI
T4 sequence (Q9Y463 whole entry): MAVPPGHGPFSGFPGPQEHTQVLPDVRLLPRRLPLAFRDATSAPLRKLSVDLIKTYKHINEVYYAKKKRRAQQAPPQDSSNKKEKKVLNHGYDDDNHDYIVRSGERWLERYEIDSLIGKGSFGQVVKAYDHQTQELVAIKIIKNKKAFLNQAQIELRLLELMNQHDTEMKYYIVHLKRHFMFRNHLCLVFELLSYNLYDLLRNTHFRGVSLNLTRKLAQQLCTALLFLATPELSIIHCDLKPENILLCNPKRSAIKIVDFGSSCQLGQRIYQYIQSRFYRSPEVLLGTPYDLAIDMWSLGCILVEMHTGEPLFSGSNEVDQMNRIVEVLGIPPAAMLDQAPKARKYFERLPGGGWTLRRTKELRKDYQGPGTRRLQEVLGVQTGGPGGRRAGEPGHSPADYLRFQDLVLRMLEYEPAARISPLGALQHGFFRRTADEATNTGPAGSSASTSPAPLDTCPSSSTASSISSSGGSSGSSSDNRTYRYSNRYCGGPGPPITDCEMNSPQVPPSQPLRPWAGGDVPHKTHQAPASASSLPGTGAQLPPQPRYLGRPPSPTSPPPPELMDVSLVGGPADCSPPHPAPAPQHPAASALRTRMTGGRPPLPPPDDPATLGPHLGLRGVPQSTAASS
T5 sequence (P50750 whole entry): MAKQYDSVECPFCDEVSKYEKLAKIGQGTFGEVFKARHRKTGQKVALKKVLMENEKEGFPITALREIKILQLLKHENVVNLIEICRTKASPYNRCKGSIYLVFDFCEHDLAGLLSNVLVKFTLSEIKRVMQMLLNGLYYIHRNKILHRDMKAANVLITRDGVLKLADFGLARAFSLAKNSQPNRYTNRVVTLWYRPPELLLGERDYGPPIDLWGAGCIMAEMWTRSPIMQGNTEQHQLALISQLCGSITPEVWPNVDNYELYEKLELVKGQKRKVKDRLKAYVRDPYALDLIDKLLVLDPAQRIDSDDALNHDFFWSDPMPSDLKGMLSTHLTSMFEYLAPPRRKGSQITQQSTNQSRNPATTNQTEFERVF
T5 sequence (O60563 whole entry partner): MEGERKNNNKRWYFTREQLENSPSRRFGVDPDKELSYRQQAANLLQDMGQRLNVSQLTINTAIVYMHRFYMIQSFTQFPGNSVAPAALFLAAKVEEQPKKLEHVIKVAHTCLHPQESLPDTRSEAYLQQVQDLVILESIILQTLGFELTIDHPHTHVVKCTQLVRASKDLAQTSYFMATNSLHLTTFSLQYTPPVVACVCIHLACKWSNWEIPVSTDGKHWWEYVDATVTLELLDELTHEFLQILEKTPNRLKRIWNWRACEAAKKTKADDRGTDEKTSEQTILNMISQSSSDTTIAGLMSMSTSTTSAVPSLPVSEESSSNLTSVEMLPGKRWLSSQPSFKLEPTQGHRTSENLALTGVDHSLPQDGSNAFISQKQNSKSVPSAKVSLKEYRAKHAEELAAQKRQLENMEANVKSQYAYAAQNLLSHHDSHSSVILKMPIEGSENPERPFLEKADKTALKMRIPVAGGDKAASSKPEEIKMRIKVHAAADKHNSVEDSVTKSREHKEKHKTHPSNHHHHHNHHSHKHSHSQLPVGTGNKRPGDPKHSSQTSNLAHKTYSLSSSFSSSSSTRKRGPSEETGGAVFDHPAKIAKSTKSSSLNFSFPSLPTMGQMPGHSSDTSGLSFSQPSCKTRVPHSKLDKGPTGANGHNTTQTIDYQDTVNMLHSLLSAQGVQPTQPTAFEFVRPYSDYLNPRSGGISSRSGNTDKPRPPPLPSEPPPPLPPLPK

Row | SMILES | IC50 [1] | IC50 [2] | IC50 [3] | IC50 [4] | IC50 [5] | IC50 [6]
1 | Cc1nc2ccc(-c3cc(N)nc(N)c3)nc2n1C[C@@H]1C[C@H]1c1ccccc1 (single isomer, unassigned) [Example 110] | 0.019 µM | 0.02 µM | 0.042 µM | – | – | –
2 | Cc1nc2ccc(-c3cc(N)nc(N)c3)nc2n1CC(C)C [Example 31, 4-[2-methyl-3-(2-methylpropyl)-3H-imidazo[4,5-b]pyridin-5-yl]pyridine-2,6-diamine] | 0.01 µM | – | 0.07 µM | 0.002 µM | 1.78 µM | 0.009 µM
3 | Cc1nc2ccc(-c3cc(N)nc(N)c3)nc2n1CC1CCOC1 (stereo not drawn) [Example 41, 4-[2-methyl-3-(tetrahydrofuran-3-ylmethyl)-3H-imidazo[4,5-b]pyridin-5-yl]pyridine-2,6-diamine] | 0.011 µM | – | 0.131 µM | 0.011 µM | 2.71 µM | 0.029 µM
4 | Cc1nc2ccc(-c3cc(N)nc(N)c3)nc2n1CCc1ccc(Cl)c(Cl)c1 [Example 58, 4-{3-[2-(3,4-dichlorophenyl)ethyl]-2-methyl-3H-imidazo[4,5-b]pyridin-5-yl}pyridine-2,6-diamine] | 0.013 µM | – | 0.08 µM | 0.013 µM | > 10 µM | 0.003 µM
5 | Cc1nc2ccc(-c3cc(N)nc(N)c3)nc2[nH]1 [Example 61, 4-(2-methyl-3H-imidazo[4,5-b]pyridin-5-yl)pyridine-2,6-diamine] | 0.009 µM | – | 0.155 µM | 0.004 µM | > 10 µM | 0.002 µM
6 | Cc1ccccc1CCn1c(C)nc2ccc(-c3cc(N)nc(N)c3)nc21 [Example 63, 4-{2-methyl-3-[2-(2-methylphenyl)ethyl]-3H-imidazo[4,5-b]pyridin-5-yl}pyridine-2,6-diamine] | 0.008 µM | – | 0.024 µM | 0.007 µM | > 10 µM | 0.003 µM
7 | Cc1nc2ccc(-c3cc(N)nc(N)c3)nc2n1C1CCSCC1 [Example 66, 4-[2-methyl-3-(tetrahydro-2H-thiopyran-4-yl)-3H-imidazo[4,5-b]pyridin-5-yl]pyridine-2,6-diamine] | 0.009 µM | – | 0.072 µM | 0.012 µM | 0.365 µM | 0.005 µM
8 | Cc1nc2ccc(-c3cc(N)nc(N)c3)nc2n1CCC1CCOCC1 [Example 78, 4-{2-methyl-3-[2-(tetrahydro-2H-pyran-4-yl)ethyl]-3H-imidazo[4,5-b]pyridin-5-yl}pyridine-2,6-diamine] | 0.025 µM | 0.018 µM | 0.133 µM | – | – | –
9 | Cc1nc2ccc(-c3cc(N)nc(N)c3)nc2n1CCc1ccccc1C(F)(F)F [Example 79, 4-(2-methyl-3-{2-[2-(trifluoromethyl)phenyl]ethyl}-3H-imidazo[4,5-b]pyridin-5-yl)pyridine-2,6-diamine] | 0.021 µM | 0.014 µM | 0.068 µM | – | – | –
10 | COc1ccccc1CCn1c(C)nc2ccc(-c3cc(N)nc(N)c3)nc21 [Example 81, 4-{3-[2-(2-methoxyphenyl)ethyl]-2-methyl-3H-imidazo[4,5-b]pyridin-5-yl}pyridine-2,6-diamine] | 0.021 µM | 0.015 µM | 0.094 µM | – | – | –
11 | CCOc1cccc(CCn2c(C)nc3ccc(-c4cc(N)nc(N)c4)nc32)c1 [Example 90, 4-{3-[2-(3-ethoxyphenyl)ethyl]-2-methyl-3H-imidazo[4,5-b]pyridin-5-yl}pyridine-2,6-diamine] | 0.015 µM | 0.016 µM | 0.129 µM | – | – | –
12 | Cc1nc2ccc(-c3cc(N)nc(N)c3)nc2n1CC1CC1c1ccccc1 (stereo not drawn) [Example 97, 4-{2-methyl-3-[(2-phenylcyclopropyl)methyl]-3H-imidazo[4,5-b]pyridin-5-yl}pyridine-2,6-diamine] | 0.015 µM | 0.021 µM | 0.097 µM | – | – | –
13 | Cc1nc2ccc(-c3cc(N)nc(N)c3)nc2n1C1CC(c2ccccc2)C1 (stereo not drawn) [Example 100, 4-[2-methyl-3-(3-phenylcyclobutyl)-3H-imidazo[4,5-b]pyridin-5-yl]pyridine-2,6-diamine] | 0.006 µM | 0.014 µM | 0.006 µM | – | – | –
14 | Cc1nc2ccc(-c3cc(N)nc(N)c3)nc2n1CCC(F)(F)F [Example 108, 4-[2-methyl-3-(3,3,3-trifluoropropyl)-3H-imidazo[4,5-b]pyridin-5-yl]pyridine-2,6-diamine] | 0.017 µM | 0.026 µM | 0.109 µM | – | – | –
15 | CCCCc1nc2ccc(-c3cc(N)nc(N)c3)nc2n1C1CCCC1 [Example 145, 4-(2-butyl-3-cyclopentyl-3H-imidazo[4,5-b]pyridin-5-yl)pyridine-2,6-diamine] | 0.03 µM | 0.115 µM | 0.171 µM | – | – | –
16 | Cc1nc2ccc(-c3cc(N)nc(N)c3)nc2n1[C@H](C)c1ccnc(F)c1 [Example 149, 4-{3-[(1R)-1-(2-fluoropyridin-4-yl)ethyl]-2-methyl-3H-imidazo[4,5-b]pyridin-5-yl}pyridine-2,6-diamine] | 0.026 µM | – | 0.33 µM | 0.004 µM | > 10 µM | 0.01 µM
17 | COCCCn1c(C)nc2ccc(-c3cc(N)nc(N)c3)nc21 [Example 150, 4-[3-(3-methoxypropyl)-2-methyl-3H-imidazo[4,5-b]pyridin-5-yl]pyridine-2,6-diamine] | 0.019 µM | – | 0.28 µM | 0.014 µM | 3.03 µM | 0.006 µM
18 | COc1cccc(CCn2c(C)nc3ccc(-c4cc(N)nc(N)c4)nc32)c1 [Example 152, 4-{3-[2-(3-methoxyphenyl)ethyl]-2-methyl-3H-imidazo[4,5-b]pyridin-5-yl}pyridine-2,6-diamine] | 0.012 µM | – | 0.22 µM | 0.007 µM | > 10 µM | 0.002 µM
19 | CCc1nc2ccc(-c3cc(N)nc(N)c3)nc2n1C1CCCC1 [Example 156, 4-(3-cyclopentyl-2-ethyl-3H-imidazo[4,5-b]pyridin-5-yl)pyridine-2,6-diamine] | 0.017 µM | – | 0.151 µM | 0.016 µM | 0.554 µM | 0.013 µM
20 | Cc1nc2ccc(-c3cc(N)nc(N)c3)nc2n1CCOc1ccccn1 [Example 217, 4-{2-methyl-3-[2-(pyridin-2-yloxy)ethyl]-3H-imidazo[4,5-b]pyridin-5-yl}pyridine-2,6-diamine] | 0.01 µM | – | 0.089 µM | 0.008 µM | 0.881 µM | 0.006 µM
21 | C=CCn1c(C#N)nc2ccc(-c3cc(N)nc(N)c3)nc21 [Example 225, 5-(2,6-diaminopyridin-4-yl)-3-(prop-2-en-1-yl)-3H-imidazo[4,5-b]pyridine-2-carbonitrile] | 0.012 µM | 0.021 µM | – | – | – | –
